{"source": "paper PMC4399838", "about": "“Antipsychotic-Like Effect of the Muscarinic Acetylcholine Receptor Agonist BuTAC in Non-Human Primates” (PLoS ONE, 2015)", "key": {"[1]": {"biological_target": "T1, human M1 muscarinic receptor (Homo sapiens, UniProt P11229)", "T1 construct": "purchased PerkinElmer Life and Analytical Sciences, Boston, MA", "T1 sequence (P11229 1-460)": "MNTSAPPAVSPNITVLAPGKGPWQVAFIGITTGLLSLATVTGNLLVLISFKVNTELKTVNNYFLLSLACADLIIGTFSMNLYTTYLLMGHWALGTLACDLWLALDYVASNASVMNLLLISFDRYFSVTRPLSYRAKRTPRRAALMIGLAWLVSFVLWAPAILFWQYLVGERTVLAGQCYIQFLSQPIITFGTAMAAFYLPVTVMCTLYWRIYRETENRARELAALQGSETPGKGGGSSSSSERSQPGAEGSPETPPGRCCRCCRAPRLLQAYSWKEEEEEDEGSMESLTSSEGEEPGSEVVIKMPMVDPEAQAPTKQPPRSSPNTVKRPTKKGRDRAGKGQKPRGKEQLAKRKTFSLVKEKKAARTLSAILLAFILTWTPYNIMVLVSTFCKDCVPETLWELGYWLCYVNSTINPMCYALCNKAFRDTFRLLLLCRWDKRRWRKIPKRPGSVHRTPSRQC", "test": "GTP-γ-[35S] binding, antibody capture SPA (agonist and antagonist mode)", "format": "biochemical", "experimental": "(§1) The antibody capture scintillation proximity technique previously described by DeLapp et al was used in a 96-well plate to determine GTP-γ-[35S] binding. One hundred μl (20–40 fmol/well) of membrane preparation from CHO cells that stably express the human M1-M5 muscarinic receptors (PerkinElmer Life and Analytical Sciences, Boston, MA) were incubated with varying concentration of test compound (final concentrations from 50pM to 1μM) for 30 min. One μM final concentration of GDP was added to M2 and M4 receptor membranes before incubation. […] (500 pM final concentration; Perkin Elmer Life and Analytical Sciences) was added to each well followed by 30 min of incubation. […] An anti-Gαq/11 antibody was used for the M1-, M3-, and M5 membranes, whereas an anti-Gαi-3 antibody was used for the M2- and M4 membranes (Eli Lilly and Company, Indianapolis, IN). […] By use of a Wallac MicroBeta TriLux scintillation counter (PerkinElmer), the plates were centrifuged for 10 min at 700 × g and counted for 1 min per well. The incubations took place at room temperature in GTP-binding assay buffer (20 mM Hepes, 100 mm NaCl, 5 mM MgC12, pH 7.4). The data were analyzed by use of nonlinear regression for a sigmoidal concentration response curve (GraphPad Prism v. 4.0). Data were normalized to a full agonist response (100 μM oxotremorine-M). […] The antagonist percent inhibition data were normalized to data generated with an EC90 concentration of acetylcholine. The mean relative EC50, IC50, and %Emax, and pKi values were calculated as a mean of at least three independent experiments±SEM. In order to obtain relevant comparisons between subtypes, the experimental system is routinely calibrated with reference agonists (oxotremorine-M, pilocarpine, MCN-A343) to measure full and partial agonism as well as to ensure that the system is not under- or over-reporting functional efficacies. The radioligand binding assays have earlier been described."}, "[2]": {"biological_target": "T2, human M4 muscarinic receptor (Homo sapiens, UniProt P08173)", "T2 construct": "purchased PerkinElmer Life and Analytical Sciences, Boston, MA", "T2 sequence (P08173 1-479)": "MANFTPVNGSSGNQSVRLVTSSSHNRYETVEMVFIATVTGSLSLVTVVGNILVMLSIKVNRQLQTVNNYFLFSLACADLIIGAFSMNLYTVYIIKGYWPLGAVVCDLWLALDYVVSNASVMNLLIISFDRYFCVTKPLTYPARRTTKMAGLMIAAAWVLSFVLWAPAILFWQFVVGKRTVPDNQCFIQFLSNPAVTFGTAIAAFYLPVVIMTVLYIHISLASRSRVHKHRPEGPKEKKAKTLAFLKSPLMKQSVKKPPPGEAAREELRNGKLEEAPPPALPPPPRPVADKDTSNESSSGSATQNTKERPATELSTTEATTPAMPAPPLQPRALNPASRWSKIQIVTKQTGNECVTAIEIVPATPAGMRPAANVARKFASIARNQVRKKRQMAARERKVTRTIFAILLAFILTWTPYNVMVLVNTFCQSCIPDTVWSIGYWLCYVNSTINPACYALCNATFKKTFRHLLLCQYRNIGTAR", "test": "GTP-γ-[35S] binding, antibody capture SPA (agonist and antagonist mode)", "format": "biochemical", "experimental": "as §1"}, "[3]": {"biological_target": "T3, human M5 muscarinic receptor (Homo sapiens, UniProt P08912)", "T3 construct": "purchased PerkinElmer Life and Analytical Sciences, Boston, MA", "T3 sequence (P08912 1-532)": "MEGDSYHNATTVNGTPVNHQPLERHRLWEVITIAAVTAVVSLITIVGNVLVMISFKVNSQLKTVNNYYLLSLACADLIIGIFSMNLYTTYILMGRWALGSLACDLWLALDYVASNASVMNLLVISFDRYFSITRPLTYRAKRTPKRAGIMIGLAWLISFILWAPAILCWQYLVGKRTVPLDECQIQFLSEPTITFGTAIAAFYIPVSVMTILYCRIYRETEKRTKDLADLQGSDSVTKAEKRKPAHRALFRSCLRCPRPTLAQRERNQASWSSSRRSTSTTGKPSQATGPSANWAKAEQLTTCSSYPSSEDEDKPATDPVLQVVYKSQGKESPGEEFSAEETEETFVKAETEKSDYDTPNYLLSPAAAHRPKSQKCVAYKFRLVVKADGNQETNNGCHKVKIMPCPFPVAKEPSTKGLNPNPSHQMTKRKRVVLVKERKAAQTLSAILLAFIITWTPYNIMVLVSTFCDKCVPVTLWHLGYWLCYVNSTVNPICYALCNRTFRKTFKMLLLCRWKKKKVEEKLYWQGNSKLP", "test": "GTP-γ-[35S] binding, antibody capture SPA (agonist and antagonist mode)", "format": "biochemical", "experimental": "as §1"}, "[4]": {"biological_target": "M3AChR (Homo sapiens, UniProt P20309)", "sequence (P20309 whole entry)": "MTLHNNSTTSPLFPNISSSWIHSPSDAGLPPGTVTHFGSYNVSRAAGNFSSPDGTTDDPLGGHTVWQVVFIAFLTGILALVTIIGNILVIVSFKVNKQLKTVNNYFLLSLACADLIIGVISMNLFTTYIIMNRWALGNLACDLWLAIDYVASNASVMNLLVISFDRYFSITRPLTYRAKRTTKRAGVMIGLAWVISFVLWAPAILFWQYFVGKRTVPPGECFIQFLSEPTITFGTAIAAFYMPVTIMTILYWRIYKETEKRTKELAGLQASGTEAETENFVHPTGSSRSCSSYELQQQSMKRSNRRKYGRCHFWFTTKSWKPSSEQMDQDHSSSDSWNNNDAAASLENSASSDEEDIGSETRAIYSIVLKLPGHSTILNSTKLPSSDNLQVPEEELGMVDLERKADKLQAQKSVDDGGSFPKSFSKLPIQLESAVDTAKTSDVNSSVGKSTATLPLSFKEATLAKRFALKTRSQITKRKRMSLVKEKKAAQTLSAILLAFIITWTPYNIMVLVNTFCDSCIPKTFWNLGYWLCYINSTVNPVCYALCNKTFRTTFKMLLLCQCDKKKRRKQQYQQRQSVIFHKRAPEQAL", "test": "Competitive radioligand binding"}, "[5]": {"biological_target": "T4, M4AChR (Homo sapiens, UniProt P08173)", "T4 sequence (P08173 1-479)": "T2 sequence (P08173 1-479)", "test": "Competitive radioligand binding"}, "[6]": {"conditions": "antagonist mode, maximal inhibition of EC90 agonist response"}}}
{"smiles": "CCCSc1nsnc1[C@H]1CN2CCC[C@H]1C2", "note": "[PTAC, (5R,6R) 6-(3-propylthio-1,2,5-thiadiazol-4-yl)-1-azabicyclo-[3.2.1]-octane]", "values": [{"measurement": "EC50", "setting": "[1]", "result": 0.372, "unit": "nM"}, {"measurement": "IC50", "setting": "[1]", "result": 0.933, "unit": "nM"}, {"measurement": "% Inhibition", "setting": "[1]; [6]", "result": "54.3 ± 1.70", "unit": "%"}, {"measurement": "Emax", "setting": "[1]; percentage of maximum 100 μM oxotremorine-M signal", "result": "38.1 ± 9.94", "unit": "%"}, {"measurement": "EC50", "setting": "[2]", "result": 1.48, "unit": "nM"}, {"measurement": "Emax", "setting": "[2]", "result": "19.4 ± 0.52", "unit": "%"}, {"measurement": "IC50", "setting": "[2]", "result": 24.5, "unit": "nM"}, {"measurement": "% Inhibition", "setting": "[2]; [6]", "result": "92.7 ± 7.49", "unit": "%"}, {"measurement": "EC50", "setting": "[3]", "result": 15.5, "unit": "nM"}, {"measurement": "Emax", "setting": "[3]", "result": "15.4 ± 2.73", "unit": "%"}, {"measurement": "IC50", "setting": "[3]; antagonist mode against EC90 of agonist, negative log-transformed, read-out: Rel pIC50 (converted)", "result": 107, "unit": "nM"}, {"measurement": "% Inhibition", "setting": "[3]; [6]", "result": "87.3 ± 7.07", "unit": "%"}, {"measurement": "Ki", "setting": "[4]", "result": 0.398, "unit": "nM"}, {"measurement": "Ki", "setting": "[5]", "result": 0.282, "unit": "nM"}]}
